Our source for the IC50 and inhibition values is US20080171737A1 (Wyeth, priority 2006, published 2008).

Each structure is given as a SMILES string. Structures can show the parent of a compound that is named as a salt.

T1 sequence (P23975 whole entry): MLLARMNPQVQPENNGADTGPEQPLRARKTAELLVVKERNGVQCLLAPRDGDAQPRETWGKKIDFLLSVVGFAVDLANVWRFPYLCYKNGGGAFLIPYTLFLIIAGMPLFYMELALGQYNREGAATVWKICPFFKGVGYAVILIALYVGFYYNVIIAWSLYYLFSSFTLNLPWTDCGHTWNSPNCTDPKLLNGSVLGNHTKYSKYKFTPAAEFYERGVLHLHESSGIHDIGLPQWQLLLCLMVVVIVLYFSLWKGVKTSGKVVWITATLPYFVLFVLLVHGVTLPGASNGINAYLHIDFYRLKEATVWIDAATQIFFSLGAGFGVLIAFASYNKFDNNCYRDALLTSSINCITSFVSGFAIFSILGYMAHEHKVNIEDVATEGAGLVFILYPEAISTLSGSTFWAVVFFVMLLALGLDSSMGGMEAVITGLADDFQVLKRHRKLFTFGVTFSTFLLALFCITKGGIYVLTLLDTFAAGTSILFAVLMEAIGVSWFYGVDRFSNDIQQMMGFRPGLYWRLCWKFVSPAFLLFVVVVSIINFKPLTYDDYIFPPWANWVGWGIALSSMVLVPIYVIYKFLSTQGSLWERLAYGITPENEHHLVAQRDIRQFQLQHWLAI

The first assay addresses T1, human hNET (Homo sapiens, UniProt P23975).
T1 construct: expressed in transfected cells; host or cells: MDCK-Net6 (MDCK cells stably transfected with hNET)
The assay is described as follows: Functional norepinephrine reuptake assay, Procedure B (6,000 cells/well).
Settings: not given
Type of assay: cell-based. In a few lines:
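MDCK cells stably expressing human NET, 6,000 cells/well, in HEPES-buffered saline pH 7.4 with ascorbic acid and 1 μM pargyline; compound preincubated 5 min at 37° C. ^3H norepinephrine uptake counted by scintillation; non-specific defined with 20 μM desipramine. IC50 from variable-slope sigmoidal nonlinear fit.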
As for `CNCCC[C@@H]1Cc2ccccc2N(c2c(F)cccc2F)S1(=O)=O` (single isomer, unassigned) [Example 122], the concentration for half-maximal inhibition (IC50) – broadly, the concentration needed to halve the response being measured – came out at 5 nM.
For the molecule `CNCCC[C@@H]1Cc2cc(F)ccc2N(c2ccccc2F)S1(=O)=O` (single isomer, unassigned) [Example 110], the IC50 came to 11 nM.
Still for that read-out and setting: for `CNCCC[C@H]1Cc2cc(F)ccc2N(c2c(F)cccc2F)S1(=O)=O` (single isomer, unassigned) [Example 155] the value was 25 nM.

The assay is the same for the next values; noted with them: MDCK-Net6 cells, 6,000 cells/well, 16 nM 3H-norepinephrine; read-out: Procedure B hNET uptake IC50.
As for `CNCCC[C@@H]1Cc2ccccc2N(c2ccccc2F)S1(=O)=O` (single isomer, unassigned) [Example 91], the IC50 was 4 nM.
Same read-out and setting: for `CNCCC[C@@H]1Cc2cc(F)ccc2N(c2ccccc2Cl)S1(=O)=O` (single isomer, unassigned) [Example 159] the value was 133 nM.
Still for that read-out and setting: for `CNCCCC1Oc2cc(Cl)ccc2N(c2ccccc2)S1(=O)=O` (stereo not shown) [Example 45, 3-(6-chloro-2,2-dioxido-1-phenyl-1H-4,2,1-benzoxathiazin-3-yl)-N-methylpropan-1-amine] the value was 114 nM; for `O=S1(=O)C(CN2CC3CC2CN3)Oc2ccccc2N1c1ccccc1` (stereo not shown) [Example 143, 3-(2,5-diazabicyclo[2.2.1]hept-2-ylmethyl)-1-phenyl-1H-4,2,1-benzoxathiazine 2,2-dioxide], 231 nM.
The same measure, in the same setting: for `C=C(CNC)CC1Cc2ccccc2N(c2ccccc2)S1(=O)=O` (stereo not shown) [Example 132, 2-[(2,2-dioxido-1-phenyl-3,4-dihydro-1H-2,1-benzothiazin-3-yl)methyl]-N-methylprop-2-en-1-amine] the value was 16 nM; for `CNCCCC1Oc2ccccc2N(c2cccnc2)S1(=O)=O` (stereo not shown) [Example 56, 3-(2,2-dioxido-1-pyridin-3-yl-1H-4,2,1-benzoxathiazin-3-yl)-N-methylpropan-1-amine], 345 nM; for `CNCCCC1Sc2ccccc2N(c2ccc(F)c(Cl)c2)S1(=O)=O` (stereo not shown) [Example 68, 3-[1-(3-chloro-4-fluorophenyl)-2,2-dioxido-1H-2,4,1-benzodithiazin-3-yl]-N-methylpropan-1-amine Hydrochloride], 471 nM.
Turning to `CNCCCC1Cc2cc(F)ccc2N(c2c(F)cccc2F)S1(=O)=O` (racemic) [Example 154, 3-[1-(2,6-difluorophenyl)-6-fluoro-2,2-dioxido-3,4-dihydro-1H-2,1-benzothiazin-3-yl]-N-methylpropan-1-amine], the IC50 came out at 31 nM.
Same read-out and setting: the figure for `CNCCCC1Cc2cc(F)ccc2N(c2ccc(F)cc2C)S1(=O)=O` (racemic) [Example 169, 3-[6-fluoro-1-(4-fluoro-2-methylphenyl)-2,2-dioxido-3,4-dihydro-1H-2,1-benzothiazin-3-yl]-N-methylpropan-1-amine] is 96 nM.
As for `CNCCCC1Oc2cc(C)ccc2N(c2ccccc2)S1(=O)=O` (stereo not shown) [Example 51, N-methyl-3-(6-methyl-2,2-dioxido-1-phenyl-1H-4,2,1-benzoxathiazin-3-yl)propan-1-amine], the half-maximal inhibitory concentration (IC50) was 249 nM.
The same measure, in the same setting: for `CNCCC1Oc2ccccc2N(c2ccccc2)S1(=O)=O` (stereo not shown) [Example 25, 2-(2,2-dioxido-1-phenyl-1H-4,2,1-benzoxathiazin-3-yl)-N-methylethanamine] the value was 162 nM.
The same measure, in the same setting: for `CNCCC[C@@H]1Cc2cc(F)ccc2N(c2ccc(F)cc2C)S1(=O)=O` (single isomer, unassigned) [Example 171] the value was 322 nM.
Turning to `CN(C)CCN(C)CC1Oc2ccccc2N(c2ccccc2)S1(=O)=O` (stereo not shown) [Example 140, N-[(2,2-dioxido-1-phenyl-1H-4,2,1-benzoxathiazin-3-yl)methyl]-N,N′,N′-trimethylethane-1,2-diamine], the IC50 was determined as 4320 nM.
On the same count and under the same terms, the figure for `CNCCCC1Oc2cc3ccccc3cc2N(c2ccc(C)cc2)S1(=O)=O` (stereo not shown) [Example 69, N-methyl-3-[1-(4-methylphenyl)-2,2-dioxido-1H-naphtho[2,3-e][1,3,4]oxathiazin-3-yl]propan-1-amine Hydrochloride] is 733 nM; for `O=S1(=O)C(CCCN2CCNCC2)Oc2ccccc2N1c1ccccc1` (stereo not shown) [Example 76, 1-phenyl-3-(3-piperazin-1-ylpropyl)-1H-4,2,1-benzoxathiazine2,2-dioxide Dihydrochloride] it is 5050 nM.
Consider `O=S1(=O)C(CCN2CCCC2)Oc2ccccc2N1c1ccccc1` (stereo not shown) [Example 29, 1-phenyl-3-(2-pyrrolidin-1-ylethyl)-1H-4,2,1-benzoxathiazine 2,2-dioxide], for which the IC50 is 1640 nM.
The same measure, in the same setting: for `NCCCC1Oc2ccccc2N(c2ccccc2)S1(=O)=O` (stereo not shown) [Example 33, 3-(2,2-dioxido-1-phenyl-1H-4,2,1-benzoxathiazin-3-yl)propan-1-amine] the value was 597 nM; for `CNCCC[C@H]1Cc2ccccc2N(c2cccnc2)S1(=O)=O` (single isomer, unassigned) [Example 124], 1710 nM.
On the same count and under the same terms, the figure for `CNCC[C@H](O)[C@H]1Cc2ccccc2N(c2ccccc2)S1(=O)=O` (single isomer, unassigned) [Example 117] is 79 nM.
On to `O=S1(=O)C(CN2CCNCC2)Oc2ccccc2N1c1ccccc1` (stereo not shown) [Example 135, 1-phenyl-3-(piperazin-1-ylmethyl)-1H-4,2,1-benzoxathiazine 2,2-dioxide], for which the IC50 turned out to be 165 nM.

The same assay, now with this note: MDCK-Net6 cells, 6,000 cells/well; Conc 6000 nM (6 μM); read-out: Procedure B hNET uptake (% inhibition).
Turning to `CC(C)CNCCCC1Oc2ccccc2N(c2ccccc2)S1(=O)=O` (stereo not shown) [Example 38, N-[3-(2,2-dioxido-1-phenyl-1H-4,2,1-benzoxathiazin-3-yl)propyl]-2-methylpropan-1-amine], the inhibition (usually the share of the control response that was lost under treatment) at 6 µM came out at 63%.
For `O=S1(=O)C(CCCNCCCO)Oc2ccccc2N1c1ccccc1` (stereo not shown) [Example 39, 3-{[3-(2,2-dioxido-1-phenyl-1H-4,2,1-benzoxathiazin-3-yl)propyl]amino}propan-1-ol], the inhibition at 6 µM is 32%.
Still for that read-out and setting: the figure for `CCN(C)CCCC1Oc2ccccc2N(c2ccccc2)S1(=O)=O` (stereo not shown) [Example 81, 3-(2,2-dioxido-1-phenyl-1H-4,2,1-benzoxathiazin-3-yl)-N-ethyl-N-methylpropan-1-amine hydrochloride] is 27%.
Still for that read-out and setting: for `CCN(CCO)CCCC1Oc2ccccc2N(c2ccccc2)S1(=O)=O` (stereo not shown) [Example 83, 2-{[3-(2,2-dioxido-1-phenyl-1H-4,2,1-benzoxathiazin-3-yl)propyl](ethyl)amino}ethanol hydrochloride] the value was 41%; for `CCCCNCCCC1Oc2ccccc2N(c2ccccc2)S1(=O)=O` (stereo not shown) [Example 36, N-[3-(2,2-dioxido-1-phenyl-1H-4,2,1-benzoxathiazin-3-yl)propyl]butan-1-amine], 57%.

A further assay deals with T1, human hNET. Description: Functional norepinephrine reuptake assay, Procedure A (50,000 cells/well). Format: cell-based. As to conditions: MDCK-Net6 cells, 50,000 cells/well, 16 nM 3H-norepinephrine; read-out: Procecedure A NE Uptake IC50. The procedure:
For screening, 25 μl aliquots of compound solution at a 1 μM or 10 μM final concentration was delivered directly to cells.
For IC50 determinations, stock compounds were prepared at 10 mM from powder. The stock solution was diluted according to compound testing range. Typically, the compound testing range was from 6 nM to 6 μM by half log dilutions. On the day of assay, 25 μl of compound solution at the specified concentrations were added to the plates containing cells. A DMSO stock of desipramine was prepared at 10 mM in DMSO and diluted for a final concentration of 20 μM to determine the non-specific reuptake.
MDCK-Net6 cells, stably transfected with human hNET (Pacholczyk, 1991), were maintained in growth media [high glucose DMEM (Gibco Cat. 11995), 10% FBS (dialyzed, heat-inactivated, Sigma, dialysed, heat inactivated, Lot# K0922 or equivalent) 1xPen/Strep, and 500 μg/ml G418 (Gibco Cat. 10131)]. Cells were plated at 300,000/T75 flask and cells split twice weekly.
Cells were plated at 50,000 cells/well (Procedure A) or 6,000 cells/well (Procedure B) on day 1 in BD Falcon Microtest 96-well sterile cell culture plates, Optilux White/Clear Bottom TC plate (VWR; # 62406-466 or equivalent) in growth media and maintained in a cell incubator (37° C., 5% CO2). On Day 2, cells were removed from the cell incubator and the growth media is replaced by 200 μl of assay buffer (25 mm HEPES 120 mM NaCL; 5 mM KCl; 2.5 mM CaCl2; 1.2 mM MgSO4; 2 mg/ml glucose (pH 7.4, 37° C.)) containing 0.2 mg/ml ascorbic acid and 1 μM parglyine. For screening, 25 μl of compound in 4% DMSO was added directly to each well and the plate was incubated for 5 minutes (37° C.). To initiate the norepinephrine reuptake, 16 nM (final concentration) of ^3H norepinephrine (specific activity; 40-80 Ci/mmol) in assay buffer was delivered in 25 μl aliquots to each well, and the plates were incubated for 5 min at 37° C. The reaction is aspirated from the plate and the cells washed with 250 μl of 50 mM Tris Buffer (4° C.). The plates were left to dry for 1 hour. The cells were lysed using 0.25 M NaOH solution then placed on a shake table and vigorously shaken for 10 minutes. After cell lysis, 100 μl of Microscint 20 (PerkinElmer; #87-051101) was added to the plates and the plates were sealed with film tape and replaced on the shake table for a minimum of 10 minutes. The plates were counted in a TopCount counter (PerkinElmer).
For screening single point determinations, each compound plate contained at least 3 control wells (maximum NE reuptake determinant) and 3 non-specific wells determined by adding 20 μM of desipramine (minimum NE reuptake determinant). Determination of active compounds was calculated using a Microsoft Excel spread sheet applying the following formula:
% inhibition=[1−((mean cpm test compound wells−mean cpm non-specific wells)/(mean cpm control wells−mean cpm non-specific wells))]×100
For IC50 determination, raw cpm values were generated in a data file from the TopCount counter. The data was organized using the Microsoft Excel and transferred into PRIZM graphing and statistical program, which calculated the estimated IC50 value. Calculation of IC50 values was made using non-linear regression analysis with a sigmoidal dose response with variable slope. The statistical program used wells containing ^3H norepinephrine only as the maximal NE reuptake determinant and wells containing ^3H norepinephrine plus 20 μM desipramine (AHR-9543) as the minimal NE reuptake determinant (non-specific determinant). Estimation of the IC50 value was completed on a log scale and the line was fit between the maximal and minimal NE reuptake values.
`CNCCC[C@]1(C)Cc2ccccc2N(c2ccccc2)S1(=O)=O` (single isomer, unassigned) [Example 9]: the half-maximal inhibitory concentration (IC50) was determined as 113 nM.
For `CN(C)CCCC1Cc2ccccc2N(c2ccccc2)S1(=O)=O` (stereo not shown) [Example 3, 3-(2,2-dioxido-1-phenyl-3,4-dihydro-1H-2,1-benzothiazin-3-yl)-N,N dimethylpropan-1-amine], the IC50 came to 484 nM.
For `NCCCC1Cc2ccccc2N(c2ccccc2)S1(=O)=O` (stereo not shown) [Example 2, 3-(2,2-dioxido-1-phenyl-3,4-dihydro-1H-2,1-benzothiazin-3-yl)propan-1-amine], the IC50 came out at 233 nM.
